In BindingDB's records for patent US12440484 (Chong Kun Dang Pharmaceutical, 2025):
pIC50: −log10 of the molar value.

Assays:
[1] = molecular target: T1, Histone deacetylase 6 (Homo sapiens, UniProt Q9UBN7); assay: Identification of HDAC Enzyme Activity Inhibition (In Vitro)
T1 sequence (Q9UBN7 whole entry): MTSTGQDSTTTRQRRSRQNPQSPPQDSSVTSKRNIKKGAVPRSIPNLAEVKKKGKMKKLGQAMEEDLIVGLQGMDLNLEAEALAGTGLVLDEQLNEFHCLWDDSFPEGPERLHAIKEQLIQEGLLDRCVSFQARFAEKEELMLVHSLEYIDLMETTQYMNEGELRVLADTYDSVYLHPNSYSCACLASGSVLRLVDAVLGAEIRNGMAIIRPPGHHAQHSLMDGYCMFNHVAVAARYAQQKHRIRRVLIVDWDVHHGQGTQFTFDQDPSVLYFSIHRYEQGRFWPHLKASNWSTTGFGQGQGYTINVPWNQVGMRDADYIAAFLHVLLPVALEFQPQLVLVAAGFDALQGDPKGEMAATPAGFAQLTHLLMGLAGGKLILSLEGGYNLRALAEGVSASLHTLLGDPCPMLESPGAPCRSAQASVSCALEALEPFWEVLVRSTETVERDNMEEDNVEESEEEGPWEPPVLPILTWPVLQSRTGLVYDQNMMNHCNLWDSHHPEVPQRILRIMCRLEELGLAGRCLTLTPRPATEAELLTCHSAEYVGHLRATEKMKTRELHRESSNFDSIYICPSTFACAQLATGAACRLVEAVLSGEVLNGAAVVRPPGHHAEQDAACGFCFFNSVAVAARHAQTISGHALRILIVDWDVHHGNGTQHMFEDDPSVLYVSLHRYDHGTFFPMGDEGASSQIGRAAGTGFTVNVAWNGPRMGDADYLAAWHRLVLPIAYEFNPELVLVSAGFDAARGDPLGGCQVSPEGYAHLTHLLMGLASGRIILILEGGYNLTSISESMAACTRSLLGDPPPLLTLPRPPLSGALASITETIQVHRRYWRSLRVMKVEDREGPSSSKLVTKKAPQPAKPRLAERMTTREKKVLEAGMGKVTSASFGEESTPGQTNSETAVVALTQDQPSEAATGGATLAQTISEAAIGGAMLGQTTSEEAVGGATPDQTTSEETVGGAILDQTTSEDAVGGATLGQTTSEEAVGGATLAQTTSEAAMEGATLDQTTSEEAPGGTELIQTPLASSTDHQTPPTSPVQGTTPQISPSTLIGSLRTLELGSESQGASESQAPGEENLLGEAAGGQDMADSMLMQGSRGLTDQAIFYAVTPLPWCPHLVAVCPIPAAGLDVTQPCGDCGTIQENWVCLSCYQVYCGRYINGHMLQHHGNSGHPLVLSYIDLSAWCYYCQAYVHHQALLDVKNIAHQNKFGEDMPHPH
Procedure: (§1) For a HDAC1 assay, samples were treated at a concentration of 100, 1000 and 10000 nM. For a HDAC6 assay, samples were treated at a concentration of 0.1, 1, 10, 100 and 1000 nM.

[2] = molecular target: Histone deacetylase 1 (Homo sapiens, UniProt Q13547); assay: as above
Procedure: as §1

Chain of Histone deacetylase 1 (Q13547 whole entry): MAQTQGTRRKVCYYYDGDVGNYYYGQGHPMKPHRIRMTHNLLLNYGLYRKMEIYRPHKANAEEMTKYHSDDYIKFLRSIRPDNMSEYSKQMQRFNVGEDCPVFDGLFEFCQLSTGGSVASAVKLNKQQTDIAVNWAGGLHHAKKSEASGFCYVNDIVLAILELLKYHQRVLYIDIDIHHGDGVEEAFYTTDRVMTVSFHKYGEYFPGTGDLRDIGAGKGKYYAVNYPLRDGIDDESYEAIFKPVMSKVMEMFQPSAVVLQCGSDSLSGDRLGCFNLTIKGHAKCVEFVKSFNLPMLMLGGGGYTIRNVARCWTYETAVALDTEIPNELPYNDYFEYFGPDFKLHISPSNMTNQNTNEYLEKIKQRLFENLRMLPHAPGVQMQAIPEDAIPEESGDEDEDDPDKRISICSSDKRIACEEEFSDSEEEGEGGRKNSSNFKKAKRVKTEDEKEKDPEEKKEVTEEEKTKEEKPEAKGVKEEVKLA

Row | Compound | pIC50 [1] | pIC50 [2]
1 | CC1(C)C(=O)N(Cc2ccc(-c3nnc(C(F)F)o3)cn2)C(=O)c2ccc(N3CCN(CC(F)(F)F)CC3)cc21 [US12440484, Compound 141] | 7.28 | < 5.00
2 | COCCN1CCC(c2ccc3c(c2)C(=O)N(Cc2ccc(-c4nnc(C(F)F)o4)cn2)C(=O)C3(C)C)CC1 [US12440484, Compound 151] | 7.48 | < 5.00
3 | O=c1c2ccccc2n(CCN2CCCCC2)c(=O)n1Cc1ccc(-c2nnc(C(F)F)o2)cc1F [US12440484, Compound 10] | 6.34 | < 5.00
4 | CC1(C)C(=O)N(Cc2ccc(-c3nnc(C(F)F)o3)cn2)C(=O)c2ccc(N3CCCCC3)cc21 [US12440484, Compound 27] | 7.37 | < 5.00
